Results as given in patent US11064704B2, “Natural product formulations with improved residual insect repellent/deterrent activity” (University of Mississippi, priority 2016, dated 2021).

Legend:
Aedes aegypti females = assay: in vivo cloth patch repellent bioassay; settings: for residual repellent activity: time post treatment at which activity lost: 12.5 μg/cm^2; for minimum effective dose (MED): cloth patch, 1 minute exposure
Experimental: (§1) Cloth patch bioassays were conducted by using in vivo bioassay system described by Katritzky et al. (2008, 2010), with minor modifications. Approximately 500 (±5%) mosquitoes, consisting primarily of females, were transferred into a test cage (45×45×45 cm) using an aspirator. A series of dosages of test compounds were tested to determine MED for repellency of the mosquitoes. MED refers to a concentration of the compound at which biting is less than or equal to 1% (i.e. less than or equal to 5 out of 500 females in the cage) during a 1 minute exposure time. A series of concentrations ranging between 6.25 to 100 μg/cm^2 were tested in the A&K bioassay.
(§2) A single test consisted of covering the hand of a volunteer with a soft-embossed long cuff poly glove (Atlantis Products, Mankato, Minn.), then by a powder-free latex glove (Diamond Grip, Microflex Corporation, Reno, Nev.). The arm was then covered with a knee high stocking (Leggs® Everyday Knee Highs, Winston-Salem N.C. 27102) to avoid the contact of treated muslin cloth with the skin. A plastic sleeve constructed of polyvinyl was then placed around the arm. Velcro strips were used to fix the plastic sleeve around the arm. About half-way between the wrist and elbow, a 4×7.5 cm slit in the plastic sleeve was used to assess mosquito landing and biting behavior. This opening permitted the attractive odors from the skin surface to emanate out and attract mosquitoes through this opening. During testing, this 30 cm^2 open area was covered with a piece of treated muslin cloth. Because of constraint of man power, only one volunteer who was provided written informed consent participated in this study. A protocol approved by the University of Mississippi Human Use Institutional Review Board (IRB protocol #15-070) was followed.
(§3) Stock solutions with concentration of 80 μg/ul were prepared in ethanol. Concentrations ranging between 6.25 to 100 μg/cm^2 were selected for testing based on previous experience of the inventors with the A&K bioassay. A piece of muslin cloth measuring 8×13 cm in size was used. An area of 4×7.5 cm was marked in the center of muslin cloth. Approximately 2.5×7 cm pieces of cardboard were attached by staples on the sides of the muslin cloth. Treatments were applied to the marked area of the cloth in 215 μL volume using a pipetter. After drying, the treated muslin cloth was secured on the opening of the plastic sleeve by using an adhesive tape.
(§4) The test started when the arm with sleeve and treated muslin cloth was inserted into the mosquito cage. […] Residual activity was determined by exposing the females to the treated muslin cloth at an interval of 30 minutes. The treated muslin patch was kept on the arm after the initial treatment and tested every half an hour thereafter.
(§5) Testing started at the highest dose (100 μg/cm^2) and the dose was lowered to reach the MED. Because the mosquitoes show reduced behavioral activity upon repeated exposure to repellent odors from the arm, after 5 successive exposures of the treatments, the caged mosquitoes were allowed a 15 min recovery period.

[1] = system: Anopheles quadrimaculatus females; assay: in vivo cloth patch repellent bioassay
Experimental: as §1, §2, §3, §4, §5

Aedes albopictus females = assay: in vivo cloth patch repellent bioassay
Experimental: as §1, §2, §3, §4, §5

An. quadrimaculatus = assay: in vitro Klun and Debboun (K&D) biting deterrent bioassay; format: in vivo, Anopheles quadrimaculatus
Experimental: (§6) Experiments were conducted by using a six-celled in vitro Klun and Debboun (K&D) module bioassay system developed by Klun et al. (2005) for quantitative evaluation of biting deterrence. Briefly, the assay system consists of a six well reservoir with each of the 3×4 cm wells containing 6 mL of blood or feeding solution. As described by Ali et al. (2012), a feeding solution consisting of CPDA-1 and ATP was used instead of blood. Green fluorescent tracer dye (www.blacklightworld.com) was used to determine the feeding by the females. Carrot seed essential oil was initially tested to determine the biting deterrent activity. […] Essential oil and carotol were further tested against Ae. aegypti and An. quadrimaculatus in this bioassay. Treatments of carrot seed essential oil at 10 μg/cm^2 and carotol were tested at 10 and 5 μg/cm^2, whereas DEET (97% N,N-diethyl-meta-toluamide) (Sigma Aldrich, St. Louis, Mo.) at 25 nmol/cm^2 was used as positive control. All the treatments were freshly prepared in molecular biology grade 100% ethanol (Fisher Scientific Chemical Co. Fairlawn, N.J.) at the time of bioassay.
The temperature of the solution in the reservoirs was maintained at 37° C. by continuously passing warm water through the reservoir using a circulatory bath. The reservoirs were covered with a layer of collagen membrane (Devro, Sandy Run, S.C.). The test compounds were randomly applied to six 4×5 cm areas of organdy cloth and positioned over the membrane-covered CPDA-1+ATP solution with a Teflon® separator placed between the treated cloth and the six-celled module to prevent the contamination of the module. […] The number of mosquitoes biting through organdy treatments in each cell was recorded after a 3 minute exposure, and mosquitoes were prodded back into the cells to check the actual feeding. […] Proportion not biting (PNB) was calculated using the procedure described by Ali et al. (2012).

Aedes aegypti = assay: as above; format: in vivo
Experimental: as §6
The temperature of the solution in the reservoirs was maintained at 37° C. by continuously passing warm water through the reservoir using a circulatory bath. The reservoirs were covered with a layer of collagen membrane (Devro, Sandy Run, S.C.). The test compounds were randomly applied to six 4×5 cm areas of organdy cloth and positioned over the membrane-covered CPDA-1+ATP solution with a Teflon® separator placed between the treated cloth and the six-celled module to prevent the contamination of the module. A six-celled K&D module containing five female mosquitoes per cell was positioned over cloth treatments covering the six CPDA-1+ATP solution membrane wells, and trap doors were opened to expose the treatments to these females. The number of mosquitoes biting through organdy treatments in each cell was recorded after a 3 minute exposure, and mosquitoes were prodded back into the cells to check the actual feeding. Mosquitoes were squashed and the presence of green fluorescent tracer dye (or not) in the gut was used as an indicator of feeding. A replicate consisted of six treatments: four test compounds, DEET (a standard biting deterrent) and ethanol-treated organdy as solvent control applied randomly. Sets of 5 replications each with 5 females per treatment were conducted on 2-3 different days using newly-treated organdy and a new batch of females in each replication. Treatments were replicated 10-15 times. Proportion not biting (PNB) was calculated using the procedure described by Ali et al. (2012).

Structure (SMILES)	residual repellent activity: time post treatment at which activity lost (Aedes aegypti females)	residual repellent activity like DEET: time post treatment up to (Aedes aegypti females; 25 μg/cm^2) [min]	residual repellent activity like DEET: time post treatment up to (Aedes aegypti females; 50 μg/cm^2) [min]	minimum effective dose (MED) (Aedes aegypti females) [μg/cm^2]	minimum effective dose (MED) [1] [μg/cm^2]	minimum effective dose (MED) (Aedes albopictus females) [μg/cm^2]	proportion not biting (PNB) (An. quadrimaculatus; 25 nmol/cm^2)	proportion not biting (PNB) (An. quadrimaculatus; 10 μg/cm^2)	biting deterrent activity (An. quadrimaculatus; compared with DEET)	proportion not biting (PNB) (Aedes aegypti; 5 μg/cm^2)	proportion not biting (PNB) (Aedes aegypti; 10 μg/cm^2)	biting deterrent activity (Aedes aegypti; compared with DEET)	proportion not biting (PNB) (Aedes aegypti; 25 nmol/cm^2)
CC1=CC[C@]2(C)CC[C@@H](C(C)C)[C@]2(O)CC1 [carotol]	failed	120	120	25	6.25	12.5	0.72	0.78	comparable to DEET	0.66	0.9	comparable to DEET	
CCN(CC)C(=O)c1cccc(C)c1 [DEET, N,N-diethyl-meta-toluamide, reference compound]	30 min			12.5	6.25	12.5							0.85
